# Measured values as given in patent US8686150B2 (Sanofi, priority 2011, dated 2014).
# Biological target: T1, human full-length recombinant PKC βII (Homo sapiens, UniProt P05771)
# T1 construct: Active human full-length recombinant PKC βII; purchased Invitrogen GmbH, Darmstadt, Germany
# Test: Determination of PKC βII inhibition (Caliper mobility-shift kinase assay, Fluorescein-RFARKGSLRQKNV peptide substrate)
# Format: biochemical
# Conditions: example compounds at a final concentration of 1.14 μM (±0.15 μM)
# Procedure, shortened: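 Full-length PKC βII (30 ng/ml in pre-dilution) with PS/DAG/Ca2+ activators, pH 7.4; fluorescein peptide and ATP at 3 μM and 120 μM before mixing. Reaction ran 60 min at 32 °C, was EDTA-stopped, and was read by mobility shift. % inhibition came from product/(substrate+product) peak heights, tested at 1.14 μM final.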
# T1 sequence (P05771 1-673 isoform P05771-2): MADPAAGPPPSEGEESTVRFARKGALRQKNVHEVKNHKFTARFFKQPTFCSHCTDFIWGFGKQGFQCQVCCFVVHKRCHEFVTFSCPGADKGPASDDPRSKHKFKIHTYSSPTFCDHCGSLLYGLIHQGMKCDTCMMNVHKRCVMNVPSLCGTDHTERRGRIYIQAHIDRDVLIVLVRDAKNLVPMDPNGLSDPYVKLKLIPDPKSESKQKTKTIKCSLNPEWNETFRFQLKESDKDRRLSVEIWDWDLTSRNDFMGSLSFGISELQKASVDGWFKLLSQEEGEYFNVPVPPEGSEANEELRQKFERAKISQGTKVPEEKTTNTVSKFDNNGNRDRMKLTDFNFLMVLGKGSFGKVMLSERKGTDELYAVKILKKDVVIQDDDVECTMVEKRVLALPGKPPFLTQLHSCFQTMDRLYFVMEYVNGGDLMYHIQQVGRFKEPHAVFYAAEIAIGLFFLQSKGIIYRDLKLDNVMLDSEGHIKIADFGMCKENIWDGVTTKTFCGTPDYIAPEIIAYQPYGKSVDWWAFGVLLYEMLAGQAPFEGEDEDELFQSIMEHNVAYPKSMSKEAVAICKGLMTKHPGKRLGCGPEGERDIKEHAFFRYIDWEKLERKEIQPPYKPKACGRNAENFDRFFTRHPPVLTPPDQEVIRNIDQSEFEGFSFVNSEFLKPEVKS
row,SMILES,inhibition at 1.14 µM [%]
1,"Cc1n[nH]c2nc(-c3ccc(O)c(F)c3)cc(C(=O)NCC(C)(C)N3CCN(C)CC3)c12 [Example 362, 6-(3-Fluoro-4-hydroxy-phenyl)-3-methyl-1H-pyrazolo[3,4-b]pyridine-4-carboxylic acid [2-methyl-2-(4-methyl-piperazin-1-yl)-propyl]-amide]",80
2,"Cc1n[nH]c2nc(-c3ccc(O)c(F)c3)cc(C(=O)NCC(C)(C)CN)c12 [Example 363, 6-(3-Fluoro-4-hydroxy-phenyl)-3-methyl-1H-pyrazolo[3,4-b]pyridine-4-carboxylic acid (3-amino-2,2-dimethyl-propyl)-amide]",72
3,"Cc1n[nH]c2nc(-c3ccc(O)c(F)c3)cc(C(=O)N3CCCN(C)CC3)c12 [Example 365, [6-(3-Fluoro-4-hydroxy-phenyl)-3-methyl-1H-pyrazolo[3,4-b]pyridin-4-yl]-(4-methyl-[1,4]diazepan-1-yl)-methanone]",41
4,"Cc1n[nH]c2nc(-c3ccc(O)c(F)c3)cc(C(=O)NCC3CCCCN3)c12 (stereo not shown) [Example 367, 6-(3-Fluoro-4-hydroxy-phenyl)-3-methyl-1H-pyrazolo[3,4-b]pyridine-4-carboxylic acid (piperidin-2-ylmethyl)-amide]",36
5,"Cc1n[nH]c2nc(-c3ccc(O)c(F)c3)cc(C(=O)NCC(C)(c3ccccn3)N3CCCC3)c12 (stereo not shown) [Example 370, 6-(3-Fluoro-4-hydroxy-phenyl)-3-methyl-1H-pyrazolo[3,4-b]pyridine-4-carboxylic acid (2-pyridin-2-yl-2-pyrrolidin-1-yl-propyl)-amide]",48
6,"Cc1n[nH]c2nc(-c3ccc(O)c(F)c3)cc(C(=O)NCC(C)(CN3CCCC3)c3ccccn3)c12 (stereo not shown) [Example 371, 6-(3-Fluoro-4-hydroxy-phenyl)-3-methyl-1H-pyrazolo[3,4-b]pyridine-4-carboxylic acid (2-methyl-2-pyridin-2-yl-3-pyrrolidin-1-yl-propyl)-amide]",31
7,"Cc1n[nH]c2nc(-c3ccc(O)cc3)cc(C(=O)N3CCN(C)CC3c3ccccc3)c12 (stereo not shown) [Example 372, [6-(4-Hydroxy-phenyl)-3-methyl-1H-pyrazolo[3,4-b]pyridin-4-yl]-(4-methyl-2-phenyl-piperazin-1-yl)-methanone]",66
8,"Cc1n[nH]c2nc(-c3ccc(O)cc3)cc(C(=O)N3CCNC(Cc4ccccc4)C3)c12 (stereo not shown) [Example 375, (3-Benzyl-piperazin-1-yl)-[6-(4-hydroxy-phenyl)-3-methyl-1H-pyrazolo[3,4-b]pyridin-4-yl]-methanone]",90
9,"COc1ccc(C(CNC(=O)c2cc(-c3ccc(O)cc3)nc3[nH]nc(C)c23)N(C)C)cc1 (stereo not shown) [Example 376, 6-(4-Hydroxy-phenyl)-3-methyl-1H-pyrazolo[3,4-b]pyridine-4-carboxylic acid [2-dimethylamino-2-(4-methoxy-phenyl)-ethyl]-amide]",64
10,"Cc1n[nH]c2nc(-c3ccc(O)cc3)cc(C(=O)N3CCN(C(=O)N4CCCC4)CC3)c12 [Example 379, {4-[6-(4-Hydroxy-phenyl)-3-methyl-1H-pyrazolo[3,4-b]pyridine-4-carbonyl]-piperazin-1-yl}-pyrrolidin-1-yl-methanone]",86
11,"COc1ccccc1C(=O)N1CCN(C(=O)c2cc(-c3ccc(O)cc3)nc3[nH]nc(C)c23)CC1 [Example 381, [6-(4-Hydroxy-phenyl)-3-methyl-1H-pyrazolo[3,4-b]pyridin-4-yl]-[4-(2-methoxy-benzoyl)-piperazin-1-yl]-methanone]",37
12,"Cc1n[nH]c2nc(-c3ccc(O)cc3)cc(C(=O)NC3CCN(Cc4ccccc4)C3)c12 (stereo not shown) [Example 384, 6-(4-Hydroxy-phenyl)-3-methyl-1H-pyrazolo[3,4-b]pyridine-4-carboxylic acid (1-benzyl-pyrrolidin-3-yl)-amide]",67
13,"Cc1n[nH]c2nc(-c3ccc(O)cc3)cc(C(=O)NCC(C)N3CCCC3)c12 (stereo not shown) [Example 389, 6-(4-Hydroxy-phenyl)-3-methyl-1H-pyrazolo[3,4-b]pyridine-4-carboxylic acid (2-pyrrolidin-1-yl-propyl)-amide]",65
14,"Cc1n[nH]c2nc(-c3ccc(O)cc3)cc(C(=O)NCCN3CCC(c4ccccc4)CC3)c12 [Example 390, 6-(4-Hydroxy-phenyl)-3-methyl-1H-pyrazolo[3,4-b]pyridine-4-carboxylic acid [2-(4-phenyl-piperidin-1-yl)-ethyl]-amide]",67
15,"Cc1n[nH]c2nc(-c3ccc(O)cc3)cc(C(=O)NCC(c3ccccc3)N3CCCC3)c12 (stereo not shown) [Example 391, 6-(4-Hydroxy-phenyl)-3-methyl-1H-pyrazolo[3,4-b]pyridine-4-carboxylic acid (2-phenyl-2-pyrroiidin-1-yl-ethyl)-amide]",84

# Other lines, results leading:
row,inhibition at 1.14 µM [%],SMILES
1,38,"Cc1n[nH]c2nc(-c3ccc(O)c(F)c3)cc(C(=O)NC3CC(C)(C)N(C)C(C)(C)C3)c12 [Example 364, 6-(3-Fluoro-4-hydroxy-phenyl)-3-methyl-1H-pyrazolo[3,4-b]pyridine-4-carboxylic acid (1,2,2,6,6-pentamethyl-piperidin-4-yl)-amide]"
2,47,"CCN1CCCN(C(=O)c2cc(-c3ccc(O)c(F)c3)nc3[nH]nc(C)c23)CC1 [Example 366, (4-Ethyl-[1,4]diazepan-1-yl)-[6-(3-fluoro-4-hydroxy-phenyl)-3-methyl-1H-pyrazolo[3,4-b]pyridin-4-yl]-methanone]"
3,58,"Cc1n[nH]c2nc(-c3ccc(O)c(F)c3)cc(C(=O)N3CC(=O)NC(C(C)C)C3)c12 (stereo not shown) [Example 368, 4-[6-(3-Fluoro-4-hydroxy-phenyl)-3-methyl-1H-pyrazolo[3,4-b]pyridine-4-carbonyl]-6-isopropyl-piperazin-2-one]"
4,34,"Cc1n[nH]c2nc(-c3ccc(O)c(F)c3)cc(C(=O)N3CC4CCCN4CC3c3ccccc3)c12 (stereo not shown) [Example 369, [6-(3-Fluoro-4-hydroxy-phenyl)-3-methyl-1H-pyrazolo[3,4-b]pyridin-4-yl]-(3-phenyl-hexahydro-pyrrolo[1,2-a]pyrazin-2-yl)-methanone]"
5,96,"Cc1n[nH]c2nc(-c3ccc(O)cc3)cc(C(=O)NC3CC4(CCNCC4)c4ccccc43)c12 (stereo not shown) [Example 373, 6-(4-Hydroxy-phenyl)-3-methyl-1H-pyrazolo[3,4-b]pyridine-4-carboxylic acid (2,3-dihydro-spiro[1H-indene-1,4′-piperidin]-3-yl)-amide]"
6,99,"Cc1n[nH]c2nc(-c3ccc(O)cc3)cc(C(=O)N3CCNCC3c3cccnc3)c12 (stereo not shown) [Example 374, [6-(4-Hydroxy-phenyl)-3-methyl-1H-pyrazolo[3,4-b]pyridin-4-yl]-(2-pyridin-3-yl-piperazin-1-yl)-methanone]"
7,69,"Cc1n[nH]c2nc(-c3ccc(O)cc3)cc(C(=O)NC(CN3CCCC3)c3ccccc3)c12 (stereo not shown) [Example 377, 6-(4-Hydroxy-phenyl)-3-methyl-1H-pyrazolo[3,4-b]pyridine-4-carboxylic acid (1-phenyl-2-pyrrolidin-1-yl-ethyl)-amide]"
8,87,"Cc1n[nH]c2nc(-c3ccc(O)cc3)cc(C(=O)N3CCNCC3c3ccc(Cl)cc3)c12 (stereo not shown) [Example 378, [2-(4-Chloro-phenyl)-piperazin-1-yl]-[6-(4-hydroxy-phenyl)-3-methyl-1H-pyrazolo[3,4-b]pyridin-4-yl]-methanone]"
9,83,"Cc1n[nH]c2nc(-c3ccc(O)cc3)cc(C(=O)N3CCN(C(=O)c4ccoc4)CC3)c12 [Example 380, [4-(Furan-3-carbonyl)-piperazin-1-yl]-[6-(4-hydroxy-phenyl)-3-methyl-1H-pyrazolo[3,4-b]pyridin-4-yl]-methanone]"
10,67,"Cc1n[nH]c2nc(-c3ccc(O)cc3)cc(C(=O)NC3CCN(CCc4ccccc4)CC3)c12 [Example 382, 6-(4-Hydroxy-phenyl)-3-methyl-1H-pyrazolo[3,4-b]pyridine-4-carboxylic acid (1-phenethyl-piperidin-4-yl)-amide]"
11,66,"Cc1n[nH]c2nc(-c3ccc(O)cc3)cc(C(=O)N3CCN4CCC[C@H]4C3)c12 [Example 383, (S)-Hexahydro-pyrrolo[1,2-a]pyrazin-2-yl-[6-(4-hydroxy-phenyl)-3-methyl-1H-pyrazolo[3,4-b]pyridin-4-yl]-methanone]"
12,24,"Cc1n[nH]c2nc(-c3ccc(O)cc3)cc(C(=O)N3CCC(Nc4ccccc4)C3)c12 (stereo not shown) [Example 385, [6-(4-Hydroxy-phenyl)-3-methyl-1H-pyrazolo[3,4-b]pyridin-4-yl]-(3-phenylamino-pyrrolidin-1-yl)-methanone]"
13,51,"Cc1n[nH]c2nc(-c3ccc(O)cc3)cc(C(=O)N3CC4CN(Cc5ccccc5)CC4C3)c12 (stereo not shown) [Example 386, (5-Benzyl-hexahydro-pyrrolo[3,4-c]pyrrol-2-yl)-[6-(4-hydroxy-phenyl)-3-methyl-1H-pyrazolo[3,4-b]pyridin-4-yl]-methanone]"
14,39,"Cc1n[nH]c2nc(-c3ccc(O)cc3)cc(C(=O)N3CCCN(C(=O)c4ccncc4)CC3)c12 [Example 387, [6-(4-Hydroxy-phenyl)-3-methyl-1H-pyrazolo[3,4-b]pyridin-4-yl]-[4-(pyridine-4-carbonyl)-[1,4]diazepan-1-yl]-methanone]"
15,54,"Cc1n[nH]c2nc(-c3ccc(O)cc3)cc(C(=O)NCCN3CCC(c4ccccc4)C3)c12 (stereo not shown) [Example 388, 6-(4-Hydroxy-phenyl)-3-methyl-1H-pyrazolo[3,4-b]pyridine-4-carboxylic acid [2-(3-phenyl-pyrrolidin-1-yl)-ethyl]-amide]"
16,49,"Cc1n[nH]c2nc(-c3ccc(O)cc3)cc(C(=O)NC3CCN(Cc4ccccc4)CC3)c12 [Example 392, 6-(4-Hydroxy-phenyl)-3-methyl-1H-pyrazolo[3,4-b]pyridine-4-carboxylic acid (1-benzyl-piperidin-4-yl)-amide]"
